Target: T1, urease enzyme (Canavalia ensiformis, UniProt P07374)
T1 construct: purchased CAS Number: 9002-13-5
Assay: Urease inhibition assay (modified Berthelot assay)
Type: biochemical, Canavalia ensiformis (Jack bean)
Details: for inhibition at 100 µM: read-out: %Age Urease Inhibition Activity (0.1 mM)
Description: Chalcones are important medicinal compounds to combat several pathological conditions associated with ureolytic enzymes (urease). […] Urease inhibition assay was performed according to the reported protocol by Pervez et al..
All reagents and solvents were obtained from the supplier or recrystallized or redistilled as necessary. Thin-layer chromatography was performed using aluminum sheets (Merck) coated with silica gel 60 F254. Urease enzyme was purchased from Canavalia ensiformis (Jack bean), CAS Number: 9002-13-5. IR spectra were recorded using an IR PerkinElmer Spectrum 1 FTIR spectrophotometer, and peaks were reported as ax (neat)/cm^−1, which refer to the […] wave numbers. Proton magnetic resonance spectra were recorded in CDCl3 with a Bruker AM 300 spectrometer (Rheinstetten-Forchheim, Germany) operating at 300 MHz, respectively. The ^13C NMR spectra were recorded in CDCl3 with a Bruker AM 100 spectrometer operating at 100 MHz. Tetramethylsilane was used as an internal standard. Elemental analyses for C, H, and N were recorded with the PerkinElmer 2400 Series II CHN Analyzer. Melting points were recorded on a GallenKamp apparatus and are uncorrected.
The enzyme assay is a modified form of the commonly known Berthelot assay. A total volume of 85 µL assay mixture contained 10 µL of phosphate buffer at pH 7.0 in each well of the 96-well plate, to which 10 µL of sample solution and 25 µL of enzyme solution (0.1347 units) were added. The contents were pre-incubated at 37 °C for 5 min. Then, 40 µL of urea stock solution (20 mM) was added to each well, and incubation continued at 37 °C for another 10 min. After the given time, 115 µL phenol hypochlorite reagent was added to each well (freshly prepared by mixing 45 µL phenol reagent with 70 µL of alkali reagent). For color development, incubation was performed at 37 °C for another 10 min. Absorbance was measured at 625 nm using the 96-well plate reader Synergy HT.

T1 sequence (P07374 whole entry, looked up): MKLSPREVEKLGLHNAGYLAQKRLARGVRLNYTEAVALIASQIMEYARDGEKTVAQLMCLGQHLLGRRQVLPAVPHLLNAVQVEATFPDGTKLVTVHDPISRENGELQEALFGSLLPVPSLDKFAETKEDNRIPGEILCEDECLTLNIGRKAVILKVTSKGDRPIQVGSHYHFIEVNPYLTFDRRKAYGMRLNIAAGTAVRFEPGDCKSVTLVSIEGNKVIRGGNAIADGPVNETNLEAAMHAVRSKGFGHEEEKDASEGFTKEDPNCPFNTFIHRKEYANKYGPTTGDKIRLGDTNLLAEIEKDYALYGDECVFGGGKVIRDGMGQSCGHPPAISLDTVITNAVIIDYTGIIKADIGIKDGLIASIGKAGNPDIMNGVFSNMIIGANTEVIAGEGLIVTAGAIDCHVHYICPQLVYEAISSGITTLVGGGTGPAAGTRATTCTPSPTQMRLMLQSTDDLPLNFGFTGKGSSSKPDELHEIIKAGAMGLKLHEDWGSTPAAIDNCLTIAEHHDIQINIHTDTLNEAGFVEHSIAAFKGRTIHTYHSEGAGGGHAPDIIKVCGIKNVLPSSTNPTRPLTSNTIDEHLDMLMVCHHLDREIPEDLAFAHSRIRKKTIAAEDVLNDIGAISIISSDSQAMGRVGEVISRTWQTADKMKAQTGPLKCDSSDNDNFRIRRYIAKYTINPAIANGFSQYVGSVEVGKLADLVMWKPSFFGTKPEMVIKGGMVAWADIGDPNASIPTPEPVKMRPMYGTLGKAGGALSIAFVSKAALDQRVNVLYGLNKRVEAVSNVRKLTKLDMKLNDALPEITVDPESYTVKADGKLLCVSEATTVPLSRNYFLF

Structure (SMILES)	IC50	inhibition at 100 µM	urease inhibition activity (in words)
O=C(/C=C/c1ccc(-c2ccc(Cl)c(Cl)c2)o1)c1ccccc1 [Compound 4f, 1-phenyl-3-[5-(3′,4′-dichlorophenyl) -2-furyl]-2-propen-1-one]	21 ± 3.52 µM	69.7 ± 1.86%	–
O=C(/C=C/c1ccc(-c2cccc(Cl)c2)o1)c1ccccc1 [Compound 4k]	23.1 ± 3.65 µM	69.52 ± 0.16%	–
O=C(O)c1cccc(-c2ccc(/C=C/C(=O)c3ccccc3)o2)c1 [Compound 4n]	46.8 ± 5.44 µM	62.3 ± 1.28%	–
O=C(/C=C/c1ccc(-c2ccccc2[N+](=O)[O-])o1)c1ccccc1 [Compound 4l]	91.4 ± 6.25 µM	51.47 ± 0.41%	–
O=C(/C=C/c1ccc(-c2ccc(Cl)cc2)o1)c1ccccc1 [Compound 4b]	–	27.15 ± 0.17%	inactive
O=C(/C=C/c1ccc(-c2ccc(Cl)cc2Cl)o1)c1ccccc1 [Compound 4o]	34 ± 9.61 µM	54.9 ± 1.98%	–
O=C(/C=C/c1ccc(-c2cc(Cl)cc(Cl)c2)o1)c1ccccc1 [Compound 4g]	–	39.7 ± 2.46%	inactive
O=C(/C=C/c1ccc(-c2ccc([N+](=O)[O-])cc2)o1)c1ccccc1 [Compound 4a]	91.9 ± 2.24 µM	50.7 ± 0.62%	–
O=C(/C=C/c1ccc(-c2ccc([N+](=O)[O-])cc2[N+](=O)[O-])o1)c1ccccc1 [Compound 4q]	44.4 ± 6.91 µM	54.7 ± 0.73%	–
O=C(/C=C/c1ccc(-c2ccc(Br)cc2)o1)c1ccccc1 [Compound 4c]	–	39.41 ± 0.34%	inactive
O=C(/C=C/c1ccc(-c2cccc([N+](=O)[O-])c2)o1)c1ccccc1 [Compound 4d]	–	46.5 ± 0.91%	inactive
O=C(/C=C/c1ccc(-c2cccc(Cl)c2[N+](=O)[O-])o1)c1ccccc1 [Compound 4j]	26 ± 2.25 µM	68.24 ± 0.11%	–
O=C(/C=C/c1ccc(-c2ccccc2Cl)o1)c1ccccc1 [Compound 4s, 1-phenyl-3-[5-(2′-chlorophenyl)-2-furyl]-2-propen-1-one]	18.7 ± 0.85 µM	71.4 ± 1.77%	–
O=C(O)c1ccc(-c2ccc(/C=C/C(=O)c3ccccc3)o2)cc1 [Compound 4e]	25 ± 1.77 µM	65.5 ± 0.77%	inactive
O=C(/C=C/c1ccc(-c2cc(Cl)ccc2[N+](=O)[O-])o1)c1ccccc1 [Compound 4i]	90.8 ± 8.99 µM	51.7 ± 1.62%	–
Cc1c(-c2ccc(/C=C/C(=O)c3ccccc3)o2)cccc1[N+](=O)[O-] [Compound 4r]	–	12.6 ± 3.37%	inactive
O=C(/C=C/c1ccc(-c2cc(Cl)ccc2Cl)o1)c1ccccc1 [Compound 4h, 1-phenyl-3-[5-(2′,5′-dichlorophenyl)-2-furyl]-2-propen-1-one]	16.1 ± 2.45 µM	66.2 ± 1.36%	–
O=C(/C=C/c1ccc(-c2ccc([N+](=O)[O-])cc2Cl)o1)c1ccccc1 [Compound 4m]	26.7 ± 0.65 µM	63.1 ± 0.86%	–
Cc1cc(-c2ccc(/C=C/C(=O)c3ccccc3)o2)cc([N+](=O)[O-])c1 [Compound 4p]	52.6 ± 8.52 µM	57.4 ± 3.02%	–

From PMC10525509, “Exploring the Synthetic Chemistry of Phenyl-3-(5-aryl-2-furyl)- 2-propen-1-ones as Urease Inhibitors: Mechanistic Approach through Urease Inhibition, Molecular Docking and Structure–Activity Relationship” (Biomedicines, 2023)
